# According to ChEMBL document CHEMBL1201862, “PubChem BioAssay data set” (2004):
#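 Following 48 hours of exposure in 96-well plates, responses at five concentrations were used to interpolate endpoints linearly. GI50 is the concentration that inhibits growth by half.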 Calls of active or inactive are those of the source. Rule as the data show it: active = GI50 up to about 1.1 µM and inactive = higher.
# Columns and labels:
# Experiment in all cases: inhibition of tumour cell growth, NCI panel, 48 h
# A498 = test system: A498
# A549 = test system: A549
# ACHN = test system: ACHN
# BT-549 = test system: BT-549
# CAKI-1 = test system: CAKI-1
# CCRF-CEM = test system: CCRF-CEM
# COLO 205 = test system: COLO 205
# DU-145 = test system: DU-145
# EKVX = test system: EKVX
# HCC 2998 = test system: HCC 2998
# HCT-116 = test system: HCT-116
# HCT-15 = test system: HCT-15
# HL-60 = test system: HL-60
# HOP-92 = test system: HOP-92
# HT-29 = test system: HT-29
# Hs-578T = test system: Hs-578T
# IGROV-1 = test system: IGROV-1
# K562 = test system: K562
# KM12 = test system: KM12
# LOX IMVI = test system: LOX IMVI
# M14 = test system: M14
# MCF7 = test system: MCF7
# MDA-MB-231 = test system: MDA-MB-231
# MDA-MB-435 = test system: MDA-MB-435
# MDA-N = test system: MDA-N
# MOLT-4 = test system: MOLT-4
# Malme-3M = test system: Malme-3M
# NCI-H226 = test system: NCI-H226
# NCI-H23 = test system: NCI-H23
# NCI-H460 = test system: NCI-H460
# NCI-H522 = test system: NCI-H522
# NCI/ADR-RES = test system: NCI/ADR-RES
# OVCAR-3 = test system: OVCAR-3
# OVCAR-4 = test system: OVCAR-4
# OVCAR-5 = test system: OVCAR-5
# OVCAR-8 = test system: OVCAR-8
# PC-3 = test system: PC-3
# RPMI-8226 = test system: RPMI-8226
# RXF 393 = test system: RXF 393
# SF-268 = test system: SF-268
# SF-295 = test system: SF-295
# SF-539 = test system: SF-539
# SK-MEL-28 = test system: SK-MEL-28
# SK-MEL-2 = test system: SK-MEL-2
# SK-MEL-5 = test system: SK-MEL-5
# SK-OV-3 = test system: SK-OV-3
# SN12C = test system: SN12C
# SNB-19 = test system: SNB-19
# SR = test system: SR
# SW-620 = test system: SW-620
# T47D = test system: T47D
# TK-10 = test system: TK-10
# U-251 = test system: U-251
# UACC-257 = test system: UACC-257
# UACC-62 = test system: UACC-62
# UO-31 = test system: UO-31
# 786-0 = test system: 786-0
# HOP-62 = test system: HOP-62
# SNB-75 = test system: SNB-75
smiles,measurement,setting,value
CC(=O)NCCC1CN(C(=O)/C=C\C#C[Si](C)(C)C)c2ccccc21 (centres undefined),GI50,A498,45.3 µM (inactive)
same,GI50,A549,27.5 µM (inactive)
same,GI50,ACHN,26.6 µM (inactive)
same,GI50,BT-549,21 µM (inactive)
same,GI50,CAKI-1,13.8 µM (inactive)
same,GI50,CCRF-CEM,11.8 µM (inactive)
same,GI50,COLO 205,4.88 µM (inactive)
same,GI50,DU-145,23.3 µM (inactive)
same,GI50,EKVX,14.8 µM (inactive)
same,GI50,HCC 2998,20.1 µM (inactive)
same,GI50,HCT-116,> 10 µM (inactive)
same,GI50,HCT-15,17.2 µM
same,GI50,HL-60,23.3 µM (inactive)
same,GI50,HOP-92,41.1 µM (inactive)
same,GI50,HT-29,20.3 µM (inactive)
same,GI50,Hs-578T,33 µM (inactive)
same,GI50,IGROV-1,14.1 µM (inactive)
same,GI50,K562,15.3 µM (inactive)
same,GI50,KM12,24.7 µM (inactive)
same,GI50,LOX IMVI,11.9 µM (inactive)
same,GI50,M14,13.3 µM (inactive)
same,GI50,MCF7,5.36 µM (inactive)
same,GI50,MDA-MB-231,17.3 µM (inactive)
same,GI50,MDA-MB-435,21.2 µM (inactive)
same,GI50,MDA-N,13.5 µM (inactive)
same,GI50,MOLT-4,17.3 µM (inactive)
same,GI50,Malme-3M,13.1 µM (inactive)
same,GI50,NCI-H226,14.9 µM (inactive)
same,GI50,NCI-H23,11.9 µM (inactive)
same,GI50,NCI-H460,28.8 µM (inactive)
same,GI50,NCI-H522,10.5 µM (inactive)
same,GI50,NCI/ADR-RES,22.1 µM (inactive)
same,GI50,OVCAR-3,16 µM (inactive)
same,GI50,OVCAR-4,18.9 µM (inactive)
same,GI50,OVCAR-5,17.1 µM (inactive)
same,GI50,OVCAR-8,37.9 µM (inactive)
same,GI50,PC-3,27 µM (inactive)
same,GI50,RPMI-8226,10.5 µM (inactive)
same,GI50,RXF 393,12.1 µM (inactive)
same,GI50,SF-268,48.2 µM (inactive)
same,GI50,SF-295,21.5 µM (inactive)
same,GI50,SF-539,20.3 µM (inactive)
same,GI50,SK-MEL-28,50.8 µM (inactive)
same,GI50,SK-MEL-2,14 µM (inactive)
same,GI50,SK-MEL-5,6.35 µM (inactive)
same,GI50,SK-OV-3,25.3 µM (inactive)
same,GI50,SN12C,37.3 µM (inactive)
same,GI50,SNB-19,26.3 µM (inactive)
same,GI50,SR,> 10 µM (inactive)
same,GI50,SW-620,35.2 µM (inactive)
same,GI50,T47D,23.3 µM (inactive)
same,GI50,TK-10,23 µM (inactive)
same,GI50,U-251,> 10 µM (inactive)
same,GI50,UACC-257,2.55 µM (inactive)
same,GI50,UACC-62,8.49 µM (inactive)
same,GI50,UO-31,26.9 µM (inactive)
COc1ccc(C(C)NNC(=O)c2ccncc2)cc1F (centres undefined),GI50,786-0,> 100 µM (inactive)
same,GI50,A498,> 100 µM (inactive)
same,GI50,A549,> 100 µM (inactive)
same,GI50,ACHN,> 100 µM (inactive)
same,GI50,BT-549,> 100 µM (inactive)
same,GI50,CAKI-1,> 100 µM (inactive)
same,GI50,CCRF-CEM,> 100 µM (inactive)
same,GI50,COLO 205,> 100 µM (inactive)
same,GI50,DU-145,> 100 µM (inactive)
same,GI50,EKVX,> 100 µM (inactive)
same,GI50,HCC 2998,> 100 µM (inactive)
same,GI50,HCT-116,> 100 µM (inactive)
same,GI50,HCT-15,> 100 µM
same,GI50,HL-60,> 100 µM (inactive)
same,GI50,HOP-62,> 100 µM (inactive)
same,GI50,HOP-92,> 100 µM (inactive)
same,GI50,HT-29,> 100 µM (inactive)
same,GI50,Hs-578T,> 100 µM (inactive)
same,GI50,IGROV-1,> 100 µM (inactive)
same,GI50,K562,> 100 µM (inactive)
same,GI50,KM12,> 100 µM (inactive)
same,GI50,LOX IMVI,> 100 µM (inactive)
same,GI50,M14,> 100 µM (inactive)
same,GI50,MCF7,> 100 µM (inactive)
same,GI50,MDA-MB-231,> 100 µM (inactive)
same,GI50,MDA-MB-435,> 100 µM (inactive)
same,GI50,MDA-N,> 100 µM (inactive)
same,GI50,MOLT-4,> 100 µM (inactive)
same,GI50,Malme-3M,> 100 µM (inactive)
same,GI50,NCI-H226,> 100 µM (inactive)
same,GI50,NCI-H23,> 100 µM (inactive)
same,GI50,NCI-H460,> 100 µM (inactive)
same,GI50,NCI/ADR-RES,> 100 µM (inactive)
same,GI50,OVCAR-3,> 100 µM (inactive)
same,GI50,OVCAR-4,> 100 µM (inactive)
same,GI50,OVCAR-5,> 100 µM (inactive)
same,GI50,OVCAR-8,> 100 µM (inactive)
same,GI50,PC-3,> 100 µM (inactive)
same,GI50,RPMI-8226,> 100 µM (inactive)
same,GI50,RXF 393,> 100 µM (inactive)
same,GI50,SF-268,> 100 µM (inactive)
same,GI50,SF-295,> 100 µM (inactive)
same,GI50,SF-539,> 100 µM (inactive)
same,GI50,SK-MEL-28,> 100 µM (inactive)
same,GI50,SK-MEL-2,> 100 µM (inactive)
same,GI50,SK-MEL-5,> 100 µM (inactive)
same,GI50,SK-OV-3,> 100 µM (inactive)
same,GI50,SN12C,> 100 µM (inactive)
same,GI50,SNB-19,> 100 µM (inactive)
same,GI50,SNB-75,> 100 µM (inactive)
same,GI50,SR,> 100 µM (inactive)
same,GI50,SW-620,> 100 µM (inactive)
same,GI50,T47D,> 100 µM (inactive)
same,GI50,TK-10,> 100 µM (inactive)
same,GI50,U-251,> 100 µM (inactive)
same,GI50,UACC-257,> 100 µM (inactive)
same,GI50,UACC-62,> 100 µM (inactive)
same,GI50,UO-31,> 100 µM (inactive)
